# In publication PMC11003488 (Journal of Enzyme Inhibition and Medicinal Chemistry, 2023):
# How the values were obtained:
# [1] = tested on: CCRF-CEM; test: NCI-60 SRB growth inhibition, one-dose and five-dose; assay type: cell-based; conditions: Homo sapiens
# [2] = tested on: HL-60(TB); test: cells; assay type: cell-based; conditions: Homo sapiens
# [3] = tested on: RPMI-8226; test: NCI-60 SRB growth inhibition, one-dose and five-dose; assay type: cell-based; conditions: Homo sapiens
# [4] = tested on: SR; test: as above; assay type: cell-based; conditions: Homo sapiens
# [5] = tested on: A549/ATCC; test: as above; assay type: cell-based; conditions: Homo sapiens
# [6] = tested on: HOP-92; test: as above; assay type: cell-based; conditions: Homo sapiens
# [7] = tested on: NCI-H226; test: as above; assay type: cell-based; conditions: Homo sapiens
# [8] = tested on: NCI-H460; test: as above; assay type: cell-based; conditions: Homo sapiens
# [9] = tested on: COLO 205; test: as above; assay type: cell-based; conditions: Homo sapiens
# [10] = tested on: HCT-116; test: as above; assay type: cell-based; conditions: Homo sapiens
# [11] = tested on: HCT-15; test: as above; assay type: cell-based; conditions: Homo sapiens
# [12] = tested on: HT29; test: as above; assay type: cell-based; conditions: Homo sapiens
# [13] = tested on: KM12; test: as above; assay type: cell-based; conditions: Homo sapiens
# [14] = tested on: SW-620; test: as above; assay type: cell-based; conditions: Homo sapiens
# [15] = tested on: SF-268; test: as above; assay type: cell-based; conditions: Homo sapiens
# [16] = tested on: SNB-19; test: as above; assay type: cell-based; conditions: Homo sapiens
# [17] = tested on: SNB-75; test: as above; assay type: cell-based; conditions: Homo sapiens
# [18] = tested on: U251; test: as above; assay type: cell-based; conditions: Homo sapiens
# [19] = tested on: MALME-3M; test: as above; assay type: cell-based; conditions: Homo sapiens
# [20] = tested on: M14; test: as above; assay type: cell-based; conditions: Homo sapiens
# [21] = tested on: MDA-MB-435; test: as above; assay type: cell-based; conditions: Homo sapiens
# [22] = tested on: SK-MEL-5; test: as above; assay type: cell-based; conditions: Homo sapiens
# [23] = tested on: UACC-62; test: as above; assay type: cell-based; conditions: Homo sapiens
# [24] = tested on: IGROV1; test: as above; assay type: cell-based; conditions: Homo sapiens
# [25] = tested on: OVCAR-3; test: as above; assay type: cell-based; conditions: Homo sapiens
# [26] = tested on: OVCAR-4; test: as above; assay type: cell-based; conditions: Homo sapiens
# [27] = tested on: OVCAR-5; test: as above; assay type: cell-based; conditions: Homo sapiens
# [28] = tested on: OVCAR-8; test: as above; assay type: cell-based; conditions: Homo sapiens
# [29] = tested on: NCI/ADR-RES; test: as above; assay type: cell-based; conditions: Homo sapiens
# [30] = tested on: 786-0; test: as above; assay type: cell-based; conditions: Homo sapiens
# [31] = tested on: A498; test: as above; assay type: cell-based; conditions: Homo sapiens
# [32] = tested on: ACHN; test: as above; assay type: cell-based; conditions: Homo sapiens
# [33] = tested on: CAKI-1; test: as above; assay type: cell-based; conditions: Homo sapiens
# [34] = tested on: SN12C; test: as above; assay type: cell-based; conditions: Homo sapiens
# [35] = tested on: TK-10; test: as above; assay type: cell-based; conditions: Homo sapiens
# [36] = tested on: DU-145; test: as above; assay type: cell-based; conditions: Homo sapiens
# [37] = tested on: MCF7; test: as above; assay type: cell-based; conditions: Homo sapiens
# [38] = tested on: HS 578 T; test: as above; assay type: cell-based; conditions: Homo sapiens
# [39] = tested on: BT-549; test: as above; assay type: cell-based; conditions: Homo sapiens
# [40] = tested on: T-47D; test: as above; assay type: cell-based; conditions: Homo sapiens, T47D
# [41] = tested on: MDA-MB-468; test: as above; assay type: cell-based; conditions: Homo sapiens
# [42] = tested on: NCI 60-cell line panel (full panel); test: NCI-60 SRB growth inhibition, full panel mean / MG-MID; assay type: cell-based, human
# [43] = read-out: percent growth inhibition
structure (smiles),measurement,setting,value
"Cc1ccc(CNc2cccc(C(=O)/C=C/c3cccnc3)c2)cc1 [Compound 5a, (E)-1–(3-((4-methylbenzyl)amino)phenyl)-3-(pyridin-3-yl)prop-2-en-1-one]",GI50,[1],2.58 µM
same,inhibition at 10 µM,[1]; [43],53.1%
same,GI50,[2]; HL-60,6.25 µM
same,inhibition at 10 µM,"[2]; HL-60, read-out: percent growth inhibition",54.6%
same,GI50,[3]; RPMI-8226,1.76 µM
same,inhibition at 10 µM,"[3]; RPMI-8226, read-out: percent growth inhibition",98.6%
same,GI50,[4],2.82 µM
same,inhibition at 10 µM,[4]; [43],85.6%
same,GI50,[5]; A549,17.3 µM
same,inhibition at 10 µM,"[5]; A549, read-out: percent growth inhibition",27.2%
same,GI50,[6]; HOP-92,10.9 µM
same,inhibition at 10 µM,"[6]; HOP-92, read-out: percent growth inhibition",41.8%
same,GI50,[7]; NCI-H226,11.9 µM
same,inhibition at 10 µM,"[7]; NCI-H226, read-out: percent growth inhibition",37.9%
same,GI50,[8]; NCI-H460,12.9 µM
same,inhibition at 10 µM,"[8]; NCI-H460, read-out: percent growth inhibition",42%
same,GI50,[9]; COLO 205,17.1 µM
same,inhibition at 10 µM,"[9]; COLO 205, read-out: percent growth inhibition",36.9%
same,GI50,"[10]; HCT-116, HCT-116, five-dose screening",2.07 µM
same,inhibition at 10 µM,"[10]; HCT-116, read-out: percent growth inhibition",189%
same,GI50,[11]; HCT-15,4.15 µM
same,inhibition at 10 µM,"[11]; HCT-15, read-out: percent growth inhibition",156%
same,GI50,[12]; HT-29,14.1 µM
same,inhibition at 10 µM,"[12]; HT-29, read-out: percent growth inhibition",159%
same,GI50,[13]; KM12,8.36 µM
same,inhibition at 10 µM,"[13]; KM12, read-out: percent growth inhibition",155%
same,GI50,[14]; SW-620,2.03 µM
same,inhibition at 10 µM,"[14]; SW-620, read-out: percent growth inhibition",173%
same,GI50,[15]; SF-268,12.8 µM
same,inhibition at 10 µM,"[15]; SF-268, read-out: percent growth inhibition",38.2%
same,GI50,[16]; SNB-19,14 µM
same,inhibition at 10 µM,"[16]; SNB-19, read-out: percent growth inhibition",34.9%
same,GI50,[17]; SNB-75,13.1 µM
same,inhibition at 10 µM,"[17]; SNB-75, read-out: percent growth inhibition",46.6%
same,GI50,[18]; U-251,9.87 µM
same,inhibition at 10 µM,"[18]; U-251, read-out: percent growth inhibition",193%
same,GI50,[19],13.6 µM
same,inhibition at 10 µM,[19]; [43],127%
same,GI50,[20]; M14,13.1 µM
same,inhibition at 10 µM,"[20]; M14, read-out: percent growth inhibition",92.7%
same,GI50,[21]; MDA-MB-435,3.04 µM
same,inhibition at 10 µM,"[21]; MDA-MB-435, read-out: percent growth inhibition",92%
same,GI50,[22]; SK-MEL-5,8.96 µM
same,inhibition at 10 µM,"[22]; SK-MEL-5, read-out: percent growth inhibition",74.9%
same,GI50,[23]; UACC-62,11.1 µM
same,inhibition at 10 µM,"[23]; UACC-62, read-out: percent growth inhibition",58.4%
same,GI50,[24]; IGROV-1,13.6 µM
same,inhibition at 10 µM,"[24]; IGROV-1, read-out: percent growth inhibition",44.5%
same,GI50,[25]; OVCAR-3,7.19 µM
same,inhibition at 10 µM,"[25]; OVCAR-3, read-out: percent growth inhibition",84.8%
same,GI50,[26]; OVCAR-4,6.81 µM
same,inhibition at 10 µM,"[26]; OVCAR-4, read-out: percent growth inhibition",63.8%
same,GI50,[27]; OVCAR-5,15.6 µM
same,inhibition at 10 µM,"[27]; OVCAR-5, read-out: percent growth inhibition",52.2%
same,GI50,[28]; OVCAR-8,13.1 µM
same,inhibition at 10 µM,"[28]; OVCAR-8, read-out: percent growth inhibition",88.3%
same,GI50,[29],7.54 µM
same,GI50,[30]; 786-0,15.5 µM
same,inhibition at 10 µM,"[30]; 786-0, read-out: percent growth inhibition",126%
same,GI50,[31]; A498,14.4 µM
same,inhibition at 10 µM,"[31]; A498, read-out: percent growth inhibition",14.1%
same,GI50,[32],14 µM
same,inhibition at 10 µM,[32]; [43],130%
same,GI50,[33]; CAKI-1,11.7 µM
same,inhibition at 10 µM,"[33]; CAKI-1, read-out: percent growth inhibition",36.7%
same,GI50,[34],12.6 µM
same,inhibition at 10 µM,[34]; [43],118%
same,GI50,[35]; TK-10,14.4 µM
same,inhibition at 10 µM,"[35]; TK-10, read-out: percent growth inhibition",18.9%
same,GI50,[36]; DU-145,13.3 µM
same,inhibition at 10 µM,"[36]; DU-145, read-out: percent growth inhibition",53.9%
same,GI50,[37]; MCF7,2.79 µM
same,inhibition at 10 µM,"[37]; MCF7, read-out: percent growth inhibition",148%
same,GI50,[38],14.6 µM
same,inhibition at 10 µM,[38]; [43],69.2%
same,GI50,[39]; BT-549,10.4 µM
same,inhibition at 10 µM,"[39]; BT-549, read-out: percent growth inhibition",111%
same,GI50,[40],9.84 µM
same,inhibition at 10 µM,[40]; [43],105%
same,GI50,[41]; MDA-MB-468,6.3 µM
same,inhibition at 10 µM,"[41]; MDA-MB-468, read-out: percent growth inhibition",153%
same,GI50,"[42]; Homo sapiens, 60 cell, read-out: Full panel GI50 mean",10.8 µM
same,Full panel Mean GI %,"[42]; mean over NCI-60 panel, single dose 10 µM",82.76%
